Reference: patent publication US7803942B2, “Crystals of morphinan derivative and process for producing the same” (Toray Industries, Inc., priority 2005, dated 2010)

Assay: pH of aqueous solution after production (Test Example 2)
Format: physicochemical
Conditions: 100 mg dissolved in 10 mL of decarbonated water; pH reproducibility after production; hydrochloride
Description: There was taken 100 mg each of the amorphous powders obtained in Reference Examples 1 to 3 and the A-form crystals obtained in Examples 1 to 3, to which 10 mL of decarbonated water was added for dissolution, followed by measuring the pH.

| SMILES | pH |
| --- | --- |
| CN(C(=O)/C=C/c1ccoc1)[C@@H]1CC[C@@]2(O)[C@H]3Cc4ccc(O)c5c4[C@@]2(CCN3CC2CC2)[C@H]1O5.Cl [Reference Example 3, 17-cyclopropylmethyl-3,14β-dihydroxy-4,5α-epoxy-6β-[N-methyl-trans-3-(3-furyl)acrylamido]morphinan hydrochloride] | 3.5 |
| CN(C(=O)/C=C/c1ccoc1)[C@@H]1CC[C@@]2(O)[C@H]3Cc4ccc(O)c5c4[C@@]2(CCN3CC2CC2)[C@H]1O5.Cl [Example 3, 17-cyclopropylmethyl-3,14β-dihydroxy-4,5α-epoxy-6β-[N-methyl-trans-3-(3-furyl)acrylamido]morphinan hydrochloride] | 5.6 |
| CN(C(=O)/C=C/c1ccoc1)[C@@H]1CC[C@@]2(O)[C@H]3Cc4ccc(O)c5c4[C@@]2(CCN3CC2CC2)[C@H]1O5.Cl [Example 2, 17-cyclopropylmethyl-3,14β-dihydroxy-4,5α-epoxy-6β-[N-methyl-trans-3-(3-furyl)acrylamido]morphinan hydrochloride] | 5.4 |
| CN(C(=O)/C=C/c1ccoc1)[C@@H]1CC[C@@]2(O)[C@H]3Cc4ccc(O)c5c4[C@@]2(CCN3CC2CC2)[C@H]1O5.Cl [Reference Example 2, 17-cyclopropylmethyl-3,14β-dihydroxy-4,5α-epoxy-6β-[N-methyl-trans-3-(3-furyl)acrylamido]morphinan hydrochloride] | 4.7 |
| CN(C(=O)/C=C/c1ccoc1)[C@@H]1CC[C@@]2(O)[C@H]3Cc4ccc(O)c5c4[C@@]2(CCN3CC2CC2)[C@H]1O5.Cl [Reference Example 1, 17-cyclopropylmethyl-3,14β-dihydroxy-4,5α-epoxy-6β-[N-methyl-trans-3-(3-furyl)acrylamido]morphinan hydrochloride] | 3.7 |
| CN(C(=O)/C=C/c1ccoc1)[C@@H]1CC[C@@]2(O)[C@H]3Cc4ccc(O)c5c4[C@@]2(CCN3CC2CC2)[C@H]1O5.Cl [Example 1, 17-cyclopropylmethyl-3,14β-dihydroxy-4,5α-epoxy-6β-[N-methyl-trans-3-(3-furyl)acrylamido]morphinan hydrochloride] | 5.8 |
